Experimental data published in patent publication US6365549B2, “Methods of blocking an ethylene response in plants using cyclopropene derivatives” (North Carolina State University, priority 1999, dated 2002).

Tests used:
Format in all cases: in vivo
[1] = system: Patio variety tomato seedlings; assay: Tomato epinasty test, volatile gas treatment; conditions: Gas 10 ppm; ethylene 10 ppm v/v; scale of 0 to 10, 10 complete protection, 0 no protection
Method: The test procedure is designed to determine the ability of an compound according to the present invention to block the epinastic growth response induced by ethylene in tomato plants when the compound is administered either as a volatile gas or as a component of a spray solution. Treatment chambers are of an appropriate size for the test plants and are airtight. Each is fitted with a reusable septum to be used for injection of ethylene. Test plants are Patio variety tomato seedlings planted two plants per three inch square plastic pot. Volatile gas treatment entails placing two pots of Patio var. tomatoes into a polystyrene 4.8 L volume treatment chamber along with one-half (upper or lower section) of a 50×9 mm plastic Petri dish containing a Gelman filter pad. The appropriate amount of experimental compound, dissolved in 1.0 ml acetone, is pipetted onto the filter pad and the chamber immediately sealed. Four hours later ethylene gas equal to 10 ppm v/v final concentration is injected into the sealed chamber. Sixteen hours later the chambers are opened in an exhaust hood, allowed to air and the plants scored visually for the degree of protection against ethylene-induced epinasty conferred by the experimental compound when compared to ethylene treated and untreated controls on a scale of 0 to 10. A rating of 10 means complete protection. A rating of 0 means no protection from the effects of ethylene.

[2] = system: banana; assay: Time of protection (insensitivity to ethylene) of bananas, compounds of the invention; conditions: saturating amount (at least 10 times minimum) for 24 hours, daily challenge with 333 μl/l ethylene 12-15 hours
Method: To obtain the time of protection, bananas were exposed to a saturating amount of the compound for 24 hours (this was done as described in Example 1 above and at least 10 times the minimum protection amount was used). After exposure, bananas were removed from the jars and each day individual bananas were exposed to 333 μl/l of ethylene for 12-15 hours. The day the bananas responded to ethylene was recorded as the protection time.

[3] = system: banana; assay: Minimum concentration protecting bananas from 333 μl/l ethylene (compound on filter paper in 3-liter jar)
Method: To obtain the minimum concentration that protected bananas from 333 μl/l of ethylene, compounds according to the present invention were applied to bananas according to the method described herein. A known amount of the active compound was placed on filter paper in a 3-liter jar to facilitate evaporation into the vapor state. The compounds were applied in an ethyl ether solution because the amount used was potentially too small to apply unless they were in solution. The amount of ether (about 10 μl in 3 l) was without effect when applied alone on a banana contained in a 3-liter jar. The jar was sealed and the banana was removed after 4 hours of exposure. At the end of exposure, the banana was treated with 333 μl/l of ethylene in a 3-liter jar for 12-15 hours. It was then observed for ripening. The minimum concentration is the concentration that protected the bananas from 333 μl/l of ethylene. Ten microliters/liter of ethylene is usually considered to be a saturating amount. This procedure was repeated for 8-, 24- and 48-hour treatment times to determine the minimum concentration of active compounds of the present invention needed to provide protection from 333 μl/l of ethylene for a given treatment time.

[4] = system: banana; assay: Minimum concentration protecting bananas from 333 μl/l ethylene (short-chain cyclopropenes injected as gas); conditions: 24 hours exposure to compound as gas in 3-liter jar, then 333 μl/l ethylene 12-15 hours, observed for ripening
Method: To obtain the minimum concentration that protected bananas from 333 μl/l of ethylene, compounds described in U.S. Pat. No. 5,518,988 to Sisler et al. were applied to bananas according to the methods setforth herein. A known amount of an active compound was injected as a gas into a 3-liter jar containing a banana. The jar was sealed and the banana was removed after 24 hours. At the end of exposure, the banana was treated with 333 pill of ethylene in a 3-liter jar for 12-15 hours. It was then observed for ripening. The minimum concentration is the minimum concentration that protected the banana from 333 μl/l of ethylene. Ten microliters/liter of ethylene is usually considered to be a saturating amount.

[5] = system: banana; assay: Time of protection (insensitivity to ethylene) of bananas, short-chain cyclopropenes; conditions: saturating amount (at least 10 times minimum) for 24 hours, daily challenge with 333 μl/l ethylene 12-15 hours
Method: To obtain the time of protection, bananas were exposed to a saturating amount of the compound for 24 hours (this was done as above and at least 10 times the minimum protection amount was used). After exposure, bananas were removed from the jars and each day individual bananas were exposed to 333 pill of ethylene for 12-15 hours. The day the bananas responded to ethylene was recorded as the protection time.

[6] = system: Patio variety tomato seedlings; assay: Tomato epinasty test, spray application treatment; conditions: applied as a spray; ethylene 10 ppm v/v; scale of 0 to 10, 10 complete protection
Method: The test procedure is designed to determine the ability of an compound according to the present invention to block the epinastic growth response induced by ethylene in tomato plants when the compound is administered either as a volatile gas or as a component of a spray solution.
Treatment chambers are of an appropriate size for the test plants and are airtight. Each is fitted with a reusable septum to be used for injection of ethylene.
Test plants are Patio variety tomato seedlings planted two plants per three inch square plastic pot.
Spray application treatment entails using a DeVilbiss atomizer to completely cover all foliage and stems of two pots of Patio var. tomato plants with the appropriate amount of experimental compound dissolved in 10% acetone/90% water with 0.05% Silwett L-77 surfactant. Plants are air-dried in a drying hood for four hours then transferred to a 4.8 L polystyrene chamber which is sealed.
Ethylene gas equal to 10 ppm v/v final concentration is injected into the sealed chamber. Sixteen hours later the chambers are opened in an exhaust hood, allowed to air and the plants scored visually for the degree of protection against ethylene-induced epinasty conferred by the experimental compound when compared to ethylene treated and untreated controls on a scale of 0 to 10. A rating of 10 means complete protection. […]

[7] = Table 2 (values equal the 24-hour treatment of Table 1)
[8] = treatment time 4 hours, then 333 μl/l ethylene 12-15 hours
[9] = treatment time 8 hours, then 333 μl/l ethylene 12-15 hours
[10] = treatment time 24 hours, then 333 μl/l ethylene 12-15 hours
[11] = treatment time 48 hours, then 333 μl/l ethylene 12-15 hours

Compound	Protection against ethylene-induced epinasty, rating [1]	Time of Insensitivity [2] [days]	Minimum Concentration [3, 7] [nl/l]	Minimum Concentration [3, 8] [nl/l]	Minimum Concentration [3, 9] [nl/l]	Minimum Concentration [3, 10] [nl/l]	Minimum Concentration [3, 11] [nl/l]	Minimum Concentration [4] [nl/l]	Time of Insensitivity [5] [days]	Protection against ethylene-induced epinasty, rating [6]
CCCCCCC1=CC1 [Compound 1, 1-Hexyl-cyclopropene]	10	20	0.4	12.0	0.8	0.4	0.3	–	–	–
CCCCCCCCC1=CC1 [Compound 23, 1-octylcyclopropene]	10	25	0.3	0.8	0.45	0.3	0.25	–	–	–
1-ethylcyclopropene [1-ethylcyclopropene (1-ECP)]	–	–	–	–	–	–	–	4	12	–
CCCCC1=CCC1 [1-butylcyclobutene, reference compound]	–	–	–	–	–	–	–	–	–	5
CCCCCC1=CCC1 [1-pentylcyclobutene]	–	–	–	–	–	–	–	–	–	10
